We go through one compound from patent publication US8314092B2, “Substituted [(5H-pyrrolo[2,1-c][1,4]benzodiazepin-11-yl)piperazin-1-yl]-2,2-dimethylpropanoic acid compounds as dual activity H1 inverse agonists/5-HT2A antagonists” (Eli Lilly and Company, priority 2011, dated 2012).

Molecules are shown by their SMILES. Counter-ions that a name gives are not always drawn. A value given as a limit tells only on which side of the number the result lay.

In assay [1] the target is T1, recombinant 5-HT2A receptor (human) (Homo sapiens, UniProt P28223).
T1 construct: expressed in transfected cells
T1 sequence (P28223 whole entry): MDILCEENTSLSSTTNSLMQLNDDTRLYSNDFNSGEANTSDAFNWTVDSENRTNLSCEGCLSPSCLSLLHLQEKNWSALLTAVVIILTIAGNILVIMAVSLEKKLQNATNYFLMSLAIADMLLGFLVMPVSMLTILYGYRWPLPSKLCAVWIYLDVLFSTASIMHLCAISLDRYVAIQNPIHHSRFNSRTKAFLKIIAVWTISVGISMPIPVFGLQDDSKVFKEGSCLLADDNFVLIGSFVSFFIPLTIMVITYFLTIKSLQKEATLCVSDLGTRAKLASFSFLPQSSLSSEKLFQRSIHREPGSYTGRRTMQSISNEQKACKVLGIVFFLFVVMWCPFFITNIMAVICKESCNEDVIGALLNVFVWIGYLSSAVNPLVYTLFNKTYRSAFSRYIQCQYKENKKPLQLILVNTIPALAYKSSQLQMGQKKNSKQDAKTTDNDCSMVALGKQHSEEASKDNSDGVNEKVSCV
Description: 5-HT2A competition binding assay ([3H]-Ketanserin SPA). As to the method: [^3H]-Ketanserin binding experiments are carried out in SPA 96-well format. Membranes used in this assay are prepared from AV-12 cells stably expressing recombinant 5-HT2A receptor (human). The incubation is initiated by the addition of a mixture of WGA YSi SPA beads (1 mg/well, Perkin Elmer (MA, USA), RPNQ0011) and 2 μg membranes to assay buffer (67 mM Tris, 0.5 mM EDTA; pH 7.6) containing 3.1 nM [^3H]-Ketanserin and varying concentrations of the test compound (10 point concentration response curves). Non-specific binding is determined in the presence of 20 μM 1-(1-Naphthyl)piperazine. Samples were incubated for four hours at room temperature (22° C.) and then read in a Microbeta Trilux.
Curves are evaluated using a 4-parameter logistic nonlinear equation to obtain the concentration of competitor causing 50% inhibition of radioligand binding (IC50). Equilibrium dissociation constants (Ki) are calculated according to the equation Ki=IC50/(1+L/Kd), where L equals the concentration of radioligand used in the experiment and Kd equals the equilibrium dissociation constant of the radioligand for the receptor, determined from standard saturation analysis or homologous competition experiments. Reported values for Ki, where n values are indicated, are shown as geometric mean±the standard error of the mean (SEM), with the number of replicate determinations indicated by n. […]

The next assay concerns the target 5-HT7 (Homo sapiens, UniProt P34969). Description: 5-HT7 binding. The text has this:
(§1) Further, the compounds of the invention may be tested in binding assays and functional activity assays by well known methods for other physiologically important receptors such as, but not limited to, the hERG channel, other serotonin receptors (specifically 5-HT1A, 5-HT1B, 5-HT1D, 5-HT1E, 5-HT1F receptors, lack of agonist activity at 5-HT2B receptors, 5-HT2C, 5-HT4, 5-HTS, 5-HT6, and 5-HT7 receptors), muscarinic receptors, dopaminergic receptors (specifically D1, D2, and D3), GABAA receptors, adrenergic receptors and monoamine transporters. Certain exemplified compounds are tested at these receptors and are shown to lack significant activity.

For a further assay, the target named is Norepinephrine Transport (Homo sapiens, UniProt P23975). Description: Norepinephrine transporter assay. It is filed as binding. As to conditions: dihydrochloride.
Norepinephrine Transport, sequence (P23975 whole entry): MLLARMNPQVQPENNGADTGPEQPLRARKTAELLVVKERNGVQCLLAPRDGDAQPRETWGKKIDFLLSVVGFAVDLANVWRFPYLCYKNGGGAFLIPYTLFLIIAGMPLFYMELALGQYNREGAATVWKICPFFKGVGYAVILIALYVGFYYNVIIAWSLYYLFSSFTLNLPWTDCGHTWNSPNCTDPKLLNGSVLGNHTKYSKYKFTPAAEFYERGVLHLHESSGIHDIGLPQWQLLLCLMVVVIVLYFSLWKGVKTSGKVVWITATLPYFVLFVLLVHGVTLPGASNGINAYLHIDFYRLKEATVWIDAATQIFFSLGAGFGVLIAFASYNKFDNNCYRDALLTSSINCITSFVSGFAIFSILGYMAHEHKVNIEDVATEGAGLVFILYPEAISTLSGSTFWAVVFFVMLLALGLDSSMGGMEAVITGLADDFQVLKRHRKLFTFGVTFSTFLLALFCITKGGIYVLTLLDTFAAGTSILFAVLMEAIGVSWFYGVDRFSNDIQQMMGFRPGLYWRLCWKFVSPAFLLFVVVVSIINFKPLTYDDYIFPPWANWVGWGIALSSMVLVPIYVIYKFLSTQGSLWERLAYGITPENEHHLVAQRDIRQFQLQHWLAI
Description: as §1

The next assay deals with T2, 5-HT2A Receptor (Rattus norvegicus, UniProt P14842).
T2 construct: samples of the frontal cortex and cerebellum are removed; from tissue; host or cells: living rat; frontal cortex (cerebellum as null region)
T2 sequence (P14842 whole entry): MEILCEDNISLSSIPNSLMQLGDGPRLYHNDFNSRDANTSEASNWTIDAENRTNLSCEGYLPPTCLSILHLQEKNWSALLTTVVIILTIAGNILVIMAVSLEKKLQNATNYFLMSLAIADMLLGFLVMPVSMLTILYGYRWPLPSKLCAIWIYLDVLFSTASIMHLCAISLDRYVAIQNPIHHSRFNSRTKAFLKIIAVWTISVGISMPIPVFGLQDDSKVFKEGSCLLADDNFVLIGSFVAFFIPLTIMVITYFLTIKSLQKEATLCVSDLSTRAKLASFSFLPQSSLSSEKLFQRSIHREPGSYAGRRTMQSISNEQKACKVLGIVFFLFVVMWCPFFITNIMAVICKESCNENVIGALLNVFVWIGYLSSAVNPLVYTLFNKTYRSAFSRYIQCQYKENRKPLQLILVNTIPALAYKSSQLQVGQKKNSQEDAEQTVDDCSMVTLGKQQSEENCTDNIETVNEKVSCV
Description: 5-HT2A receptor occupancy in vivo (MDL 100907 tracer). The note with it: oral gavage, 1 hour before tracer, read-out: 5-HT2A receptor occupancy EC50. The method, then: Briefly, male Sprague-Dawley rats (Harlan Sprague-Dawley, Indianapolis, Ind.) weighing approximately 230-280 grams are given ad lib access to food and water until the beginning of the 3-hour experimental protocol. 1 mg/kg ketanserin (non-selective 5-HT2A antagonist) is used as a positive control to establish assay validity. Test compounds or control are administered by oral gavage in a vehicle comprised of 20% hydroxypropyl beta-cyclodextrin. MDL 100907 ((R) -(+)-α-(2,3-Dimethoxyphenyl)-1-[2-(4-fluorophenyl)ethyl]-4-piperidinemethanol), a selective 5-HT2A antagonist, is used as a tracer. […] It is at the time of tracer administration that receptor occupancy (RO) is considered to be measured. […] The level of MDL 100907 tracer is measured in each cortical and cerebellar sample. RO is calculated using the well-established ratio method which employs a region of high receptor density representative of total binding (frontal cortex) normalized by an area without or with very low levels of receptor (cerebellum). […]
MDL 100907 Analysis: Cortex and cerebellar samples are weighed and placed in conical centrifuge tubes on ice. […] Standards are prepared by adding known quantities of analyte to brain tissue samples from non-treated rats and processing as described above. […]

The target of assay [2] is human recombinant H1 receptor (Homo sapiens, UniProt P35367). Description: H1 inverse agonism (IP1 accumulation in HEK293/hm H1 cells). The format is cell-based. The arrangement: expressed in transfected cells; host or cells: HEK293 (HEK293/hm H1 clone R-40).
human recombinant H1 receptor, sequence (P35367 whole entry): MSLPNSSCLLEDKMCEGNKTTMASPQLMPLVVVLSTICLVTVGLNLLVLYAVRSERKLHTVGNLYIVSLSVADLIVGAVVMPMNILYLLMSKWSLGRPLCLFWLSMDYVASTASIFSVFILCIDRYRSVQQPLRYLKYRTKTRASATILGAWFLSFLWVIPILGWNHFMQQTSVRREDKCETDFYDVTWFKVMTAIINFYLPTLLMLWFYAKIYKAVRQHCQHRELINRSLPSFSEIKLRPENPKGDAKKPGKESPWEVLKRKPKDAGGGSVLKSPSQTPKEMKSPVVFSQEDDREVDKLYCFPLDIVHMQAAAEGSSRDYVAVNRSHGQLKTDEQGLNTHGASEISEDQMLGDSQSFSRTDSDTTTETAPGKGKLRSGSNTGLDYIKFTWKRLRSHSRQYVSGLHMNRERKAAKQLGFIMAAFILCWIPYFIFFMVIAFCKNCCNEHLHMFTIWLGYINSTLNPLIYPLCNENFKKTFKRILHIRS

5-HT7, sequence (P34969 whole entry, species assumed): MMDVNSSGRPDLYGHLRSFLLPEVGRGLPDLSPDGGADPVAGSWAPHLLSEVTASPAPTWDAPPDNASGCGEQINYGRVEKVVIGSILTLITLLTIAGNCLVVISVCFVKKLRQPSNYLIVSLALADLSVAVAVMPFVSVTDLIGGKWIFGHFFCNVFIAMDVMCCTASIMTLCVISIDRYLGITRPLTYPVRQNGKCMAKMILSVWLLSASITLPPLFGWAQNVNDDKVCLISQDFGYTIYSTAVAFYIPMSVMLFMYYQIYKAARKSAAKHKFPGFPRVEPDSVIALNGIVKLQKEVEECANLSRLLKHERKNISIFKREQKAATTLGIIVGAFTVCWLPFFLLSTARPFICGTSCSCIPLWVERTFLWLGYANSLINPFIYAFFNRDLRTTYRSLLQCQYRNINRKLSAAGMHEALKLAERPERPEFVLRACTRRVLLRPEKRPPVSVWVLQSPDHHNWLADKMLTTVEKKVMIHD

One may read the Ki as the dissociation constant of the complex between target and ligand, obtained from inhibition or displacement. As a reminder, the IC50 is the concentration at which inhibition is half-maximal. With `Cc1cc2n(c1)Cc1cc(Cl)ccc1N=C2N1CCN(CC(C)(C)C(=O)O)CC1` [Example 13, 3-[4-(7-Chloro-2-methyl-5H-pyrrolo[2,1-c][1,4]benzodiazepin-11-yl)piperazin-1-yl]-2,2-dimethylpropanoic acid dihydrochloride], the Ki was 63.2 nM in assay [1] and more than 3970 nM on 5-HT7. Moreover, the “Norepinephrine Transport” value at Norepinephrine Transport is more than 526. Further, the ED50 at 5-HT2A Receptor was 0.27 mg/kg. In addition, the 50% inhibitory concentration (IC50) in assay [2] (IP1 accumulation, HEK293/hm H1 cells) is 53.9 ± 37 nM. Moreover, the “suppression of constitutive activity (negative efficacy)” value in assay [2] (relative to positive control Tripelennamine 10 μM) was 126±6%.
